In US20250268877A1 (BIOGEN MA INC., priority 2020, published 2025):
pIC50: −log10 of the molar value. Values after ≈ are worked out from the molar mass of the structure shown. Where two headings read alike, the source gives them in different places.

Assays:
IRAK4 = IRAK4 (Homo sapiens (Human), UniProt Q9NWZ3); experiment: IRAK4 2-hour 1 mM ATP Biochemical Assay (MesoScale Detection format)
Procedure: The 2-hour 1 mM ATP Biochemical Assay employed a MesoScale Detection (MSD) format.
The activity was quenched with 11 μl of 70 mM EDTA, pH 8.
To detect the phosphorylated biotinylated peptide substrate, 30 μl of the quenched reaction mixture was added to equivalent wells of a 384 well streptavidin coated MesoScale plate (Meso Scale Discovery #L21SA-1). After a 1 hour incubation of the plate for 1 hour at room temperature with gentle mixing, the plate wells were washed 3 times with 50 mM Tris, pH 7.5, 150 mM NaCl, 0.02% Tween-20.
A 25 μl volume of 1:500 anti-P-Threonine Rabbit polyclonal Antibody plus 1:500 Goat-anti-Rabbit Sulfo Tag Antibody (Meso Scale Discovery R^32AB-1) in 50 mM Tris, pH 7.5, 150 mM NaCl, 0.02% Tween-20 plus 2% BSA was then added to each well. After a 1-hour incubation of the plate for 1 hour at room temperature with gentle mixing, the plate wells were washed, 3 times with 50 mM Tris, pH 7.5, 150 mM NaCl, 0.02% Tween-20.

MDR1 = MDR1 (Homo sapiens (Human), UniProt P08183); experiment: MDR1-MDCK assay (apparent permeability, efflux ratio); format: in vitro ADME; details: human, MDCK-MDR1, 1 μM
MDR1, sequence (P08183 whole entry, the tested form may be a part): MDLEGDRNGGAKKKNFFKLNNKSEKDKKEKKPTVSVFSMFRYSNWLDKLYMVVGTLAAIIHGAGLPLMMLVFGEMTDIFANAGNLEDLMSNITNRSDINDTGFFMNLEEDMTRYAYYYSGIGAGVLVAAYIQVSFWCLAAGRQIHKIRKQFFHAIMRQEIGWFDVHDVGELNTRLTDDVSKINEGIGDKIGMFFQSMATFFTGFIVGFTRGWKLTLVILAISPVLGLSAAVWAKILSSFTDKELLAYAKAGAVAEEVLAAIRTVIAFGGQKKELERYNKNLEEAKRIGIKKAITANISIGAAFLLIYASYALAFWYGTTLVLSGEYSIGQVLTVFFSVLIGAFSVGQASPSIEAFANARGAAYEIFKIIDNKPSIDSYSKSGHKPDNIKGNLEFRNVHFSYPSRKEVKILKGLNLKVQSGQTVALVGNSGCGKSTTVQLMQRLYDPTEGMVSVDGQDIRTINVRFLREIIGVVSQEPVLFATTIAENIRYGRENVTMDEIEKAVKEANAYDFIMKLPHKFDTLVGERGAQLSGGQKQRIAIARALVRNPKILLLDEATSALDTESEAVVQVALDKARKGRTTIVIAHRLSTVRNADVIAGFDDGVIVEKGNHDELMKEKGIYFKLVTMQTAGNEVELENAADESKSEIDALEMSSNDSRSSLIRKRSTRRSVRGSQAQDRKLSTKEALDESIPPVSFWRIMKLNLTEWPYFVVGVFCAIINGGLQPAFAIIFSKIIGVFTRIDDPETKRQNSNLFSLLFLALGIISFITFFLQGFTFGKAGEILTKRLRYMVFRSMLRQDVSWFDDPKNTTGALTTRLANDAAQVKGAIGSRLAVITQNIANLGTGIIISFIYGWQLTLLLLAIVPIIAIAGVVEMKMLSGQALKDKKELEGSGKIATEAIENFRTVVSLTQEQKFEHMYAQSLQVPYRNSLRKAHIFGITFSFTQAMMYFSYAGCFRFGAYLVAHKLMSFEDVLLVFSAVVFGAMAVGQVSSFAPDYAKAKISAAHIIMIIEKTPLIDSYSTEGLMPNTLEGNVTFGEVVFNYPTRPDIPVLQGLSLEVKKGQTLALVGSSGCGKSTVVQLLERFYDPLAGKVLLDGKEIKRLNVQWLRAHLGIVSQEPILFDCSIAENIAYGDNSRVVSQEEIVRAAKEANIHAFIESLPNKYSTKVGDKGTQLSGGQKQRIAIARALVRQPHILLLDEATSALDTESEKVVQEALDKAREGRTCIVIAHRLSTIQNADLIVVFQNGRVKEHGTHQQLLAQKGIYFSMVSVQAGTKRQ

[1] = target: catalytical domain of human IRAK4 (a.a. 163-460) (Homo sapiens (Human), UniProt Q9NWZ3); experiment: IRAK4 SPR binding assay; details: single-cycle, 1:1 interaction model
catalytical domain of human IRAK4 (a.a. 163-460), sequence (Q9NWZ3 163-460): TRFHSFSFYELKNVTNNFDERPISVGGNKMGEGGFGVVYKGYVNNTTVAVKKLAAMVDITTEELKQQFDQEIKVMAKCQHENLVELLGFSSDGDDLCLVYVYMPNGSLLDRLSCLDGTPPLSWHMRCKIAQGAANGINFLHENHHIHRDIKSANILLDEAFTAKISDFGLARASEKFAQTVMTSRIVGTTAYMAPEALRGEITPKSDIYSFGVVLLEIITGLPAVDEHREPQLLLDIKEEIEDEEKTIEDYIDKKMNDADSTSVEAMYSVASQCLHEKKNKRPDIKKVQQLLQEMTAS
Procedure: IRAK4 SPR. IRAK4 SPR was set up on Biacore T200 or S200 by using Biotin CAPture kit (Cytiva). In brief, purified IRAK4 in capture buffer (25 mM Hepes, 150 mM NaCl, 1 mM TCEP, pH7.4) was captured onto a CAP sensor surface via the interaction of biotin to streptavidin Typical capture level is between 1,000 RU to 2,000 RU, Compound binding kinetics to IRAK4 was examined with running buffer (25 mM Hepes, 150 mM NaCl, 1 mM TCEP, 2% DMSO, pH7.4). Serially diluted compounds were injected at 50 μl/min in single-cycle for 60-s association of each injection followed by 360-s dissociation at the end. The data was fitted to global 1:1 interaction model.

[2] = Kpuu assay (in vivo brain-to-plasma partition, unbound); details: intravenous infusion 4 to 24 h, unbound drug partition coefficient; for Kp: brain (unbound) versus plasma (unbound), read-out: Brain Kpu,u
Procedure: For the brain-to-plasma partition coefficient (Kp) evaluation, a dosing solution was intravenously infused into animals at a constant flow rate for 4 to 24 h. Blood samples were serially collected during infusion, and CSF and brain samples were harvested at the end of infusion.
Tissue samples were typically homogenized in phosphate buffer saline (PBS) using a bead ruptor.
CSF samples were typically diluted with 8% BSA in PBS to prevent from non-specific binding. Artificial CSF (aCSF) is used as the surrogate matrix.
Calibration curves were prepared by spiking the analyte(s) into blank matrices, which were processed together with plasma, tissue homogenate and/or CSF samples by protein precipitation using a proper organic solvent (e.g. acetonitrile and methanol) containing generic analogue internal standards (e.g. verapamil, chrysin and glyburide). Matrix matching was used when analyzing multiple matrices in the same run. Samples above the upper limit of quantitation (ULOQ) needed to be diluted into the calibration range using either a pre-extraction or post-extraction dilution approach.
Processed samples were analyzed by LC-MS/MS using a proper method performing within the acceptable sensitivity, selectivity, precision and accuracy. For an analytical run to be accepted, over 75% of the calibration standards in the dual calibration curves needed to be within 20% of the nominal concentrations.
Brain concentrations were compared against plasma concentrations at the corresponding timepoint for the calculation of partition coefficient (Kp).
Unbound drug partition coefficient (Kpuu), defined as the ratio of unbound drug partition across the blood-brain barrier, was calculated using the equation below:
[formula] • Cb: measured total drug concentration in brain • Fub: unbound drug fraction in brain • Cp: measured total drug concentration in plasma • Fup: unbound drug fraction in plasma Compound- or study-specific PK analysis that deviates from the typical procedure might be used when necessary, which will be documented in a study specific protocol included in the data upload.
Mix thoroughly. • This spiked plasma solution is shown in FIG. 1. • 3) Prepare a chilled ‘crash’ solution of internal standard in a solvent solution. • Pipette 200 μL of 25 ng/mL solution of internal standard, CPDPX (8-Cyclopentyl-1,3-dipropylxanthine, Sigma-Aldrich, C101) in 1:1 acetonitrile/methanol solvent solution into a 1 mL 96-well plate. • Chill on ice or refrigerate at 4° C. • This solution becomes the ‘Crash’ plate in FIG. 1. • 4) From remaining spiked plasma, remove 50 μL (T=0 h) of each plasma sample and place into a crash plate which contains 200 μL. To matrix match, add 50 μL of blank buffer to the crashed sample (similar to PPB samples). […] Mix crash plate thoroughly. • From remaining spiked plasma, remove 50 μL (T=4 h) of each plasma sample and place into a crash plate. To matrix match, add 50 μL of blank buffer to the crashed sample (similar to the protein binding samples). • Centrifuge crash plate at 3900 rpm for 10 minutes at 4° C.
% Free=(PAR of buffer side/PAR of plasma side)*100 • PAR—Peak area ratio (PAR)
Fu=% Free/100 • Fu=fraction unbound

[3] = Kinetic solubility assay (CLND), potassium phosphate buffer pH 6.8; format: physicochemical; details: pH 6.8, 2% DMSO, 24 hours at ambient temperature; for solubility at 24 h: pH 6.8, aqueous buffer
Source text: • Inject filtrates into the nitrogen detector for quantification on Analiza's Automated Discovery Workstation (ADW). • Solubility results generated in μg/mL

[4] = target: Human MDR1 transfected MDCK cells (Homo sapiens (Human), UniProt P08183); experiment: MDR1-MDCK assay (apparent permeability, efflux ratio); format: in vitro ADME; details: 1 μM, 120 minutes
Human MDR1 transfected MDCK cells, sequence (P08183 whole entry): as the sequence (P08183 whole entry, the tested form may be a part) above

[5] = 100 pM IRAK4, read-out: IRAK4 IC50
[6] = read-out: MDR1-MDCK_Efflux Ratio
[7] = potassium phosphate buffer, kinetic from dmso stock

IRAK4, sequence (Q9NWZ3 whole entry): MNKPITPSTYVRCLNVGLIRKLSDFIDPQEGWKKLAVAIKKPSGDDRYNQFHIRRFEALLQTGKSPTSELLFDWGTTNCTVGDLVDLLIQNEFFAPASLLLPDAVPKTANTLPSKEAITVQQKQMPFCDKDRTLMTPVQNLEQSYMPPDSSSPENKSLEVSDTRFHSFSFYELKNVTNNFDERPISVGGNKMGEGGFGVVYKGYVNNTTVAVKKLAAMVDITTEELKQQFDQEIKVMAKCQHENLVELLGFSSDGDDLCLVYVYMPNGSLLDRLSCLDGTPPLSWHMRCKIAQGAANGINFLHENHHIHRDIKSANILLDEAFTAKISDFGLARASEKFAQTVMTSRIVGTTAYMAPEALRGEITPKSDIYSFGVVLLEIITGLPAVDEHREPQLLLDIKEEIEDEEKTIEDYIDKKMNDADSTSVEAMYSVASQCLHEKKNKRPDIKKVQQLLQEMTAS

SMILES | pIC50 (IRAK4; [5]) | efflux ratio at 120 min, 1 μM (MDR1; [6]) | IRAK4 SPR binding Half Life [1] | solubility at 24 h [3, 7] | Kp [2] | further results
CC(C)Oc1nc2nn([C@]34CC[C@](C)(C3)OC4)cc2cc1C(=O)Nc1cccn(C)c1=O (single isomer, unassigned) [Comparator 1C, reference compound] | – | – | – | – | – | pIC50 (IRAK4; 100 pM IRAK4, comparator table, read-out: IRAK4 Biochemical IC50): 9.40; efflux ratio at 120 min, 1 μM (MDR1; comparator table, read-out: MDR1-MDCK Efflux Ratio): 1.2; IRAK4 SPR binding Half Life ([1]; comparator table): 0.452 h; Kp ([2]; comparator table): 1.3; solubility kinetic at 24 h ([3]; potassium phosphate buffer, aqueous buffer, kinetic from dmso stock, comparator table): 44.3 µg/mL (≈ 101 µM)
C[C@]12CC[C@](n3cc4cc(C(=O)Nc5cccn(C6CC6)c5=O)c(OC5CCC5)cc4n3)(CO1)C2 (single isomer, unassigned) [Example 41] | 9.70 | 1.71 | 0.527 h | 19.7 µg/mL (≈ 41.5 µM) | – | Brain Kpu,u [2]: 0.9
CC(C)Oc1nc2nn([C@@]34CC[C@@](C)(C3)OC4)cc2cc1C(=O)Nc1cccn(C2CC2)c1=O (single isomer, unassigned) [Example 47] | 9.70 | 2.04 | 0.9 h | 1.09 µg/mL (≈ 2.35 µM) | 1.6 | –
CC(C)Oc1cc2nn([C@]34CC[C@](C)(C3)OC4)cc2cc1C(=O)Nc1cccn([C@H]2C[C@H]2F)c1=O (single isomer, unassigned) [Example 51] | 10.00 | 3.47 | 2.32 h | 42.3 µg/mL (≈ 88 µM) | 0.4 | –
C[C@@H]1C[C@@H]1n1cccc(NC(=O)c2cc3cn([C@@]45CC[C@@H](C4)OC5)nc3nc2OC2CC2)c1=O (single isomer, unassigned) [Example 94] | 9.22 | – | – | – | – | MDR1-MDCK_Efflux Ratio [4]: 2.73; Solubility pH 6.8 [3]: 14.7 ug/mL
CC(C)Oc1cc2nn([C@@]34CC[C@@](C)(C3)OC4)cc2cc1C(=O)Nc1cccn(C2CC2)c1=O [Example 2, N-(1-cyclopropyl-2-oxo-1,2-dihydropyridin-3-yl)-6-isopropoxy-2-((1S,4S)-1-methyl-2-oxabicyclo[2.2.1]heptan-4-yl)-2H-indazole-5-carboxamide] | 9.40 | 1.58 | 0.8808 h | 51.7 µg/mL (≈ 112 µM) | 0.9 | –
CC(C)Oc1nc2nn(C34COC(C)(C3)C4)cc2cc1C(=O)Nc1cccn(C2CC2)c1=O [Example 9, N-(1-cyclopropyl-2-oxo-1,2-dihydropyridin-3-yl)-6-isopropoxy-2-(1-methyl-2-oxabicyclo[2.1.1]hexan-4-yl)-2H-pyrazolo[3,4-b]pyridine-5-carboxamide] | 9.52 | 3.26 | 1.34 h | 18.7 µg/mL (≈ 41.6 µM) | 0.8 | –
CC(C)Oc1nc2nn(C34COC(CF)(C3)C4)cc2cc1C(=O)Nc1cccn(C2CC2)c1=O [Example 10, N-(1-cyclopropyl-2-oxo-1,2-dihydropyridin-3-yl)-2-(1-(fluoromethyl)-2-oxabicyclo[2.1.1]hexan-4-yl)-6-isopropoxy-2H-pyrazolo[3,4-b]pyridine-5-carboxamide] | 9.70 | 3.4 | 1.22 h | 22.7 µg/mL (≈ 48.5 µM) | 0.6 | –
CC(C)Oc1cc2nn([C@@]34CC[C@@](C)(C3)OC4)cc2cc1C(=O)Nc1cccn([C@H]2C[C@H]2F)c1=O [Example 50, N-(1-((1S,2R)-2-fluorocyclopropyl)-2-oxo-1,2-dihydropyridin-3-yl)-6-isopropoxy-2-((1S,4S)-1-methyl-2-oxabicyclo[2.2.1]heptan-4-yl)-2H-indazole-5-carboxamide] | 10.00 | 2.75 | 2.3 h | 40.5 µg/mL (≈ 84.3 µM) | 0.4 | –
CC(C)Oc1cc2nn(C34COC(CF)(C3)C4)cc2cc1C(=O)Nc1cccn([C@H]2C[C@H]2F)c1=O [Example 52, N-(1-((1S,2R)-2-fluorocyclopropyl)-2-oxo-1,2-dihydropyridin-3-yl)-2-(1-(fluoromethyl)-2-oxabicyclo[2.1.1]hexan-4-yl)-6-isopropoxy-2H-indazole-5-carboxamide] | 9.70 | 5.16 | 1.18 h | 38.4 µg/mL (≈ 79.3 µM) | 0.3 | –
CC(C)Oc1cc2nn(C34COC(CF)(C3)C4)cc2cc1C(=O)Nc1cccn([C@@H]2C[C@@H]2C)c1=O [Example 81, 2-(1-(fluoromethyl)-2-oxabicyclo[2.1.1]hexan-4-yl)-6-isopropoxy-N-(1-((1R,2S)-2-methylcyclopropyl)-2-oxo-1,2-dihydropyridin-3-yl)-2H-indazole-5-carboxamide] | 7.43 | – | – | – | – | MDR1-MDCK_Efflux Ratio [4]: 1.95
CC12CC(n3cc4cc(C(=O)Nc5cccn([C@H]6C[C@H]6F)c5=O)c(OC5CC5)nc4n3)(CO1)C2 [Example 85, 6-cyclopropoxy-N-(1-((1S,2R)-2-fluorocyclopropyl)-2-oxo-1,2-dihydropyridin-3-yl)-2-(1-methyl-2-oxabicyclo[2.1.1]hexan-4-yl)-2H-pyrazolo[3,4-b]pyridine-5-carboxamide] | 9.70 | 7.21 | 0.8 h | 20.1 µg/mL (≈ 43.2 µM) | 0.3 | –
C[C@@H]1C[C@@H]1n1cccc(NC(=O)c2cc3cn(C45COC(CF)(C4)C5)nc3nc2OC2CC2)c1=O [Example 92] | 8.77 | – | – | – | – | MDR1-MDCK_Efflux Ratio [4]: 5.77; Solubility pH 6.8 [3]: 12.8 ug/mL
